These results are taken from patent US8552022B2, “Substituted cyclopropyl compounds, compositions containing such compounds and methods of treatment” (Merck Sharp & Dohme Corp., priority 2009, dated 2013).

A value given as a limit tells only on which side of the number the result lay.

This experiment concerns the target T1, GPR119 (UniProt Q8TDV5, S309L, species not given).
T1 sequence (Q8TDV5 1-335 S309L): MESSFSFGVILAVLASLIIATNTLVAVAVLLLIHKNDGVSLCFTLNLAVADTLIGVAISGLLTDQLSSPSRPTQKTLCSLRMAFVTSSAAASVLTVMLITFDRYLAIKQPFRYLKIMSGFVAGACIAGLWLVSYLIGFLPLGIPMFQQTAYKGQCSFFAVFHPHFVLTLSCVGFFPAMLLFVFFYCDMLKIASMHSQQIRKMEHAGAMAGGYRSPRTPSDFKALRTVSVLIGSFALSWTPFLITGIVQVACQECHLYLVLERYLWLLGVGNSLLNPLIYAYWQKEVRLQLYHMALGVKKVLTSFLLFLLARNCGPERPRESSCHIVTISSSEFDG
Put plainly: GPR119 signaling, cyclic AMP (cAMP) HTRF assay. The following applies: CHO cells with Gα15 and murine GPR119 or HEK293 Flp-In cells with human GPR119 S309L, read-out: EC50 (agonist activation of GPR119, cAMP). In kind it is cell-based, human (S309L variant) or murine. The text has this:
The title compound was synthesized using 2-{2-[1-(5-chloropyrimidin-2-yl)piperidin-4-yl]cyclopropyl}ethyl 4-methylbenzenesulfonate from step 1 of this example by a general procedure analogous that described in Example 59. LRMS calc: 424.9; obs: 425.01 (M+1). Measurement of GPR119Signaling Using a Cyclic AMP (cAMP) Homogenous Time Resolved Fluorescence (HTRF) Assay
Chinese hamster ovary (CHO) cell lines stably transfected with the permissive guanine nucleotide binding protein alpha 15 (Gα15) and murine GPR119 were maintained in DMEM media containing FBS, penicillin-streptomycin, puromycin, and G418 (geneticin). Alternatively, human embryonic kidney (HEK)293 Flp-In cells (Invitrogen, Carlsbad, Calif.) were stably transfected with a human SNP variant (S309L) of GPR119 and maintained in DMEM media containing FBS, penicillin-streptomycin, and hygromycin. Agonist activation of the GPR119 receptor was measured in receptor transfected cells described above, treated with compounds of this invention, using a commercial homogenous time resolved fluorescence (HTRF) kit for measurement of cAMP (CisBio, Bedford, Mass.). The assay was performed in 96-well half-volume plates (murine) or 384-well plates (human) following the manufacturers instructions. Briefly, suspended cells were incubated with a dose titration of test compound at room temperature for 60 min, lysed, and incubated with HTRF reagents for an additional 60 min. The plate was read using an Envision multilabel reader (Perkin Elmer) adjusted to read time resolved fluorescence and the cAMP concentrations were extrapolated from a cAMP calibration curve. […] The concentration of test compound required to stimulate a half-maximal response (EC50), and efficacy as compared to an internal agonist control, was determined from a sigmoidal 4-parameter curve fit of the resulting plot of normalized activity versus compound concentration.
As a reminder, the EC50 is the concentration that produces a half-maximal response. As to `Cn1ncc2cc(NCC[C@@H]3C[C@@H]3C3CCN(c4ncc(Cl)cn4)CC3)ccc21` [Ex 48, N-(2-{(1S,2S)-2-[1-(5-chloropyrimidin-2-yl)piperidin-4-yl]cyclopropyl}ethyl)-1-methyl-1H-indazol-5-amine], the concentration giving a half-maximal response (EC50) is 10 to 50 nM.

Turning to `Cn1cc2cc(NCC[C@@H]3C[C@@H]3C3CCN(c4ncc(Cl)cn4)CC3)ccc2n1` [Ex 49, N-(2-{(1S,2S)-2-[1-(5-chloropyrimidin-2-yl)piperidin-4-yl]cyclopropyl}ethyl)-2-methyl-2H-indazol-5-amine], the concentration for a half-maximal effect (EC50) lay in the range of 10 to 50 nM.

As for `O=C1Cc2cc(NCC[C@@H]3C[C@@H]3C3CCN(c4ncc(Cl)cn4)CC3)ccc2N1` [Ex 50, 5-[(2-{(1S,2S)-2-[1-(5-chloropyrimidin-2-yl)piperidin-4-yl]cyclopropyl}ethyl)amino]-1,3-dihydro-2H-indol-2-one], the 50% effective concentration (EC50) lay in the range of 10 to 50 nM.

Consider `CN1C(=O)Cc2cc(NCC[C@@H]3C[C@@H]3C3CCN(c4ncc(Cl)cn4)CC3)ccc21` [Ex 51, 5-[(2-{(1S,2S)-2-[1-(5-chloropyrimidin-2-yl)piperidin-4-yl]cyclopropyl}ethyl)amino]-1-methyl-1,3-dihydro-2H-indol-2-one], for which the EC50 is < 10 nM.

Turning to `CC(=O)Nc1ccc(NCC[C@@H]2C[C@@H]2C2CCN(c3ncc(Cl)cn3)CC2)cc1` [Ex 52, N-{4-[(2-{(1S,2S)-2-[1-(5-chloropyrimidin-2-yl)piperidin-4-yl]cyclopropyl}ethyl)amino]phenyl}acetamide], the concentration giving a half-maximal response (EC50) lay in the range of 10 to 50 nM.

Consider `O=C1Cc2cc(NCC[C@@H]3C[C@@H]3C3CCN(c4ncc(Cl)cn4)CC3)cc(F)c2N1` [Ex 53, 5-[(2-{(1S,2S)-2-[1-(5-chloropyrimidin-2-yl)piperidin-4-yl]cyclopropyl}ethyl)amino]-7-fluoro-1,3-dihydro-2H-indol-2-one], for which the EC50 is < 10 nM.

Take `O=C1Cc2cc(NCC[C@@H]3C[C@@H]3C3CCN(c4ncc(Cl)cn4)CC3)cc(Cl)c2N1` [Ex 54, 7-chloro-5-[(2-{(1S,2S)-2-[1-(5-chloropyrimidin-2-yl)piperidin-4-yl]cyclopropyl}ethyl)amino]-1,3-dihydro-2H-indol-2-one]: the EC50 is < 10 nM.

As for `CC(=O)Nc1ccc(NCC[C@@H]2C[C@@H]2C2CCN(c3ncc(Cl)cn3)CC2)cn1` [Ex 55, N-{5-[(2-{(1S,2S)-2-[1-(5-chloropyrimidin-2-yl)piperidin-4-yl]cyclopropyl}ethyl)amino]pyridin-2-yl}acetamide], the half-maximal effective concentration (EC50) was < 10 nM.

Turning to `CC(C)(C)C(=O)Nc1ccc(NCC[C@@H]2C[C@@H]2C2CCN(c3ncc(Cl)cn3)CC2)cn1` [Ex 56, N-{5-[(2-{(1S,2S)-2-[1-(5-chloropyrimidin-2-yl)piperidin-4-yl]cyclopropyl}ethyl)amino]pyridin-2-yl}-2,2-dimethyl propanamide], the concentration giving a half-maximal response (EC50) is < 10 nM.

For `Clc1cnc(N2CCC([C@H]3C[C@H]3CCNc3ccc4cn[nH]c4c3)CC2)nc1` [Ex 57, N-(2-{(1S,2S)-2-[1-(5-chloropyrimidin-2-yl)piperidin-4-yl]cyclopropyl}ethyl)-1H-indazol-6-amine], the EC50 was < 10 nM.
